This is an account of results in patent US8093393B2, “Cationic ceramides, and analogs thereof, and their use for preventing or treating cancer” (MUSC Foundation for Research Development, priority 2004, dated 2012).

In general, pIC50 refers to −log10 of the IC50, conventionally taken in molar units. One may read the Solubility as the dissolved amount per volume that the medium holds. A high value points to much dissolved substance.

The test system of series [1] is UM-SCC-22A cells. The experiment in a line: MTT cell survival assay and isobologram studies. In kind it is cell-based, human. For orientation: Formazan colour is commonly taken as a measure of viable cells.
The conditions of series [2]: mice; cited from earlier work.
Series [3] concerns isolated rat liver mitochondria. The experiment in a line: Mitochondrial permeabilization (ΔΨ, large-amplitude swelling). The note with it: for mitochondrial large-amplitude swelling (in words): 60 μM.
Experimental: Effects of ceramides on ΔΨ value (17A) and mitochondrial large-amplitude swelling (17B, 17C) Mitochondria were incubated at the condition described under Section 9.1 except that 2 μM of TPP+ was present from the beginning of the experiment. Alamethicin (ALA), a pore-forming peptide (7 μg/mg protein), was added as indicated to induce permeabilization and determine the full extend of potential changes in the parameters of interest. Where indicated ceramides at 40 μM were present from the beginning of the experiment. FIGS. 17A and 17B show time-courses of ceramides effect on ΔΨ and mitochondrial swelling. […] Degree of mitochondrial swelling was determined 30 min after ceramide treatment.
Mitochondria were incubated at the condition described under Section 9.1 except that 2 μM of TPP+ was present from the beginning of the experiment. Trace 2, no addition. […] Trace 4, FCCP at 1 μM was present from the beginning of the experiment. […] Alamethicin (ALA), a pore-forming peptide (7 μg/mg protein), was added as indicated to induce permeabilization and determine the full extent of potential changes in the parameters of interest.
Mitochondria were incubated at the condition described under “Experimental procedures”. […] Trace 2, DCCD at 100 μM was added from the beginning of the experiment. Alamethicin (ALA) was added as indicated to determine full degree of permeabilization. […] The curve was generated from experiments similar to that depicted in traces 1 and 2 with indicated concentration of DCCD present from the beginning of the experiment.
Effect of hydrophobic cations on the time-course of mitochondrial large-amplitude swelling. Alamethicin (ALA), a pore-forming peptide (7 μg/mg protein), was added as indicated to induce permeabilization and determine the full extent of mitochondrial swelling. Where indicated cations at 60 μM were added to the incubation medium. Trace 1, no additions; trace 2, C2 pyridinium ceramide; trace 3, TMRM; trace 4, cetyl pyridinium; trace 5, TPP^+. Trace 3 was corrected for the absorbance of TMRM.
Time-course (A) and dose-response (B) of the effect of C6 pyridinium dihydroceramide on mitochondrial large-amplitude swelling. Mitochondria were incubated at the condition described under “Experimental procedures”. Alamethicin (ALA), a pore-forming peptide (7 μg/mg protein), was added as indicated to induce permeabilization and determine the full extent of mitochondrial swelling. Where indicated ceramides at 30 μM were added to the incubation medium. […] Trace 1, no additions; trace 2, C6 pyridinium ceramide; trace 3, C6 pyridinium dihydroceramide. […] Degree of mitochondrial swelling was determined 15 min after ceramide treatment. Trace 1, C6 pyridinium dihydroceramide; trace 2, C6 pyridinium ceramide.
Series [4] deals with MCF7 cells. To be noted: 5 μM. As for the experimental part: FIGS. 4A-4C show the cellular levels of CCPS analogs. MCF 7 cells were treated with 5 μM concentration of CCPS analogs over the time and cellular level of the nonmetabolized CCPSs was measured by MS methodology as shown under Experimental. Results are expressed as % of concentration applied.
A parallel set of cells was used to determine cell proliferation and to prepare lipid extracts for MS analysis.
Briefly, for the indicated points, media was removed, cells were washed twice with PBS, scraped into cold PBS (2×1.0 ml), transferred to glass vials and centrifuged for 5 min at 800 rpm. Cell pellets corresponding to ˜1×10^6 cells, were fortified with the internal standards IS (C17 base D-erythro-sphingosine: 17Sph, C17 sphingosine-1-phosphate: 17Sph-1P, N-palmitoyl-D-erythro-C13 sphingosine: 13CC16-Cer and N-heptadecanoyl-D-erythro-C17shingosine: 17CC17-Cer) and extracted (2×2 ml) into a one-phase solvent system with ethyl acetate/iso-propanol/water (60/30/10 v/v). One ml of this extract was used for Pi determination after lipid re-extraction by the Bligh and Dyer method. Remaining lipid extract was evaporated, reconstituted in 100 μl of methanol, and samples were injected on the Surveyor/TSQ 7000 LC/MS system and gradient eluted from the BDS Hypersil C8, 150×3.2 mm, 3 μm particle size column, with 1.0 mM methanolic ammonium formate/2 mM aqueous ammonium formate mobile phase system. Peaks corresponding to the target analytes and IS were collected and processed using the Xcalibur software system.
Cellular level of CCPS analogs was established by MS methodology.

Series [5] relates to isolated rat liver mitochondria. The experiment in a line: Accumulation / binding in isolated mitochondria. The note with it: at 4 min. As for the experimental part:
FIG. 16. […] Bar 2 and 4 (+FCCP), ΔΨ was dissipated by addition of FCCP at 1 μM plus antimycin A at 0.5 μg/mg protein from the beginning of the experiment. Results are expressed as mean+SEM of n=3, *p=0.01 versus control.
FIG. 23. […] Trace 3 was corrected for the absorbance of TMRM.
Preparation of mitochondria from rat liver.
Mitochondrial incubation medium.
Analysis of ceramides by mass spectroscopy (MS).

Series [6] deals with MCF7 breast carcinoma cells. The experiment in a line: Cell proliferation and viability, Trypan blue exclusion assay. The class given is cell-based. To be noted: for pIC50: 48 h treatment, read-out: IC50, inhibitory effect on MCF7 cell growth. As to the method: FIGS. 5A-5F show the dose dependent effects of CCPS analogs on survival of MCF7 breast carcinoma cells in comparison to the activity of D-e-C6-ceramide, which is commonly used as a model of ceramide action. Cell proliferation and cell viability were determined by Trypan blue exclusion assay. These assays were performed using duplicate samples in two or three independent experiments.
Cell Proliferation: Cells were seeded into plates at a density of approx. 50% corresponding to 1×10^6 cells, in 10 ml of 10% FCS and after an over night incubation the cells were treated with LCL compounds at concentration 0-20 μM in ethanol (ethanol level was kept below 0.1%) and the changes in cell numbers after 48 h were determined and expressed as a percentage of the untreated controls.
Briefly, media was removed, cells were washed twice with PBS, detached using 1% Trypsin and centrifuged at 800 rpm. Cell pellets were resuspended in PBS and Trypan blue (Sigma Chemicals, St. Louis, Mo., USA) was added (1:1 dilution). Under light microscope, the percentage of unstained and stained cells was assessed.
To examine the anticancer activity of CCPS analogs of the invention, their inhibitory effect on MCF7 breast carcinoma cells were analyzed and compared to the activity of D-e-C6-ceramide, which is commonly used as a model of action for ceramides. Cell proliferation and cell viability were determined by Trypan blue exclusion assay.

For series [7], the system named is UM-SCC-22A cells. The experiment in a line: Cell cycle profiles by flow cytometry. The class given is cell-based, human. To be noted: 1 μM, 48 hr. As to the method: FIGS. 13A to 13B. Roles of CCPS on cell cycle profiles, and telomerase activity of UM-SCC-22A cells. (FIG. 13A) The effects of D-e-C6—, D-e-C12- and L-th-C12-pyridinium ceramides (at 1 μM for 48 hr) on cell cycle profiles of UM-SCC-22A cells were determined and compared to that of untreated cells using flow cytometry as described in Materials and Methods. (FIG. 13B) The effects of 0, 100, 250 and 500 nM L-t-C6-Pyr-Cer (LCL-124) (lanes 1-4, respectively) at 96 hr treatment in UM-SCC-22A cells on telomerase activity was assessed using TRAP assay. Lanes 5 and 6 contain positive (+) and negative (−) controls. To examine whether C6-Pyr-Cer inhibits telomerase activity directly, cell extracts (as shown in lane 1) were incubated in the presence of various concentrations of L-th-C6-Pyr-ceramide (LCL-124; 10, 20 and 100 μM) and telomerase activity was determined using TRAP assay (lanes 7-9, respectively). The presence of non-telomeric 36 bp internal standard (IS) in the TRAP assay serves as a control for polymerase chain reaction, and used for quantitation/normalization of the activity of telomerase. The results shown are representative of at least two independent experiments.
Analysis of cell cycle profiles. The effects of pyridinium ceramides on the cell cycle profiles of A549 cells at 24 hr were analyzed in the presence of DNase-free RNase and propidium iodine (PI) by flow cytometry as described in Ogretmen et al., J. Biol. Chem. 2001; 276: 24901-24910, which is incorporated herein by reference in its entirety. Untreated cells were used as controls.
Analysis of cell cycle profiles. […] Untreated cells were used as controls.
In general terms: In flow cytometry, cells or beads pass a laser one at a time.

Series [8] relates to MCF7 cells. To be noted: 5 μM. This is another data set of the same source.
Experimental: Data are expressed as changes in the total ceramide level (pmol) or individual ceramide components (pmol) normalized to the phospholipid level, Pi (nmol) present in the Bligh & Dyer lipid extract and shown as changes to the control cells: Ceramide/Pi[pmol/nmol] (% Control).
Endogenous ceramide: ESI/MS/MS analysis of endogenous sphingoid bases, sphingoid base 1-phosphates and ceramide species was performed on a Thermo Finnigan TSQ 7000 triple quadrupole mass spectrometer, operating in a Multiple Reaction Monitoring (MRM) positive ionization mode using modified version (Bielawski, J. et al., SERMACS 2003, poster #68) of the protocol previously published (Sullard, M. C., Merrill, A. H., Sciences stke 2001/67/p 11).
Briefly, for the indicated points, media was removed, cells were washed twice with PBS, scraped into cold PBS (2×1.0 ml), transferred to glass vials and centrifuged for 5 min at 800 rpm. Cell pellets corresponding to ˜1×10^6 cells, were fortified with the internal standards IS (C17 base D-erythro-sphingosine: 17Sph, C17 sphingosine-1-phosphate: 17Sph-1P, N-palmitoyl-D-erythro-C13 sphingosine: 13CC16-Cer and N-heptadecanoyl-D-erythro-C17shingosine: 17CC17-Cer) and extracted (2×2 ml) into a one-phase solvent system with ethyl acetate/iso-propanol/water (60/30/10 v/v). One ml of this extract was used for Pi determination after lipid re-extraction by the Bligh and Dyer method. Remaining lipid extract was evaporated, reconstituted in 100 μl of methanol, and samples were injected on the Surveyor/TSQ 7000 LC/MS system and gradient eluted from the BDS Hypersil C8, 150×3.2 mm, 3 μm particle size column, with 1.0 mM methanolic ammonium formate/2 mM aqueous ammonium formate mobile phase system. […]
Quantitative analysis was based on the calibration curves generated by spiking an artificial matrix with the known amounts of the target analyte synthetic standards and an equal amount of the internal standards (IS). […]
Final data were adjusted and results were expressed as level of particular sphingolipids/Pi (pmol/nmol).
The conditions of series [9]: aqueous conditions at pH 4.5, 7.5 and 8.5 over 48 hrs.
A short description of series [10]: Solubility of ceramides and ceramidoids in water.
The mark [11] stands for this setting: Homo sapiens, read-out: IC50 of chemotherapeutic agents.
Setting [12] is: UM-SCC-22A, 48 hr, read-out: IC50, cell growth.
[13] abbreviates: UM-SCC-22A, 96 hr, DMEM, read-out: IC50, cell growth.

pIC50: −log10 of the molar value. Values joined by “and” are separate entries in the source; they are usually repeats but may differ in a detail not shown here. Equal entries are not always repeated. Where two headings read alike, the source gives them in different places.

In the case of `COc1cccc2c1C(=O)c1c(O)c3c(c(O)c1C2=O)C[C@@](O)(C(=O)CO)C[C@@H]3O[C@H]1C[C@H](N)[C@H](O)[C@H](C)O1` [DOX, doxorubicin], the negative logarithm of the IC50 (pIC50) with UM-SCC-22A cells [1] (setting [11]) was 6.60 to 7.00. The “MTD of reference drugs (known)” value in series [2] is 1 to 2 mg/kg and 2 mg/kg.

With `CCCCCCCCCCCCCCC[C@@H](O)[C@H](CO)NC(=O)CCCCC[n+]1ccccc1.[Br-]` [LCL143, D-erythro-2-N-[6′-(1″-Pyridinium)-hexanoyl]-4,5-dihydrosphingosine Bromide], the “lag period of the induction of mitochondrial swelling versus C6-pyridinium-ceramide” value in series [3] (30 μM) is on record as “three fold increase in the lag period”. In addition, the “Intracellular level, % of concentration applied” value in the series on MCF7 cells [4] (1 h) is given as 15%. The figures for the “Cellular level, % of concentration applied” value in the series on MCF7 cells [4] (5 h) and in the series with MCF7 cells [4] (24 h) were 13% and 35%, respectively. The compound further came in with a binding to mitochondria in series [5] (30 μM) of 9.8±0.7 nmol/mg protein. Further, in series [6], the pIC50 was 5.30.

In the case of `CCCCCCCCCCCCC/C=C/[C@@H](O)[C@H](CO)NC(=O)CCCCCCCCCCC[n+]1ccccc1.[Br-]` [LCL88, D-erythro-2-N-[12′-(1″-Pyridinium)-dodecanoyl]-sphingosine Bromide], in the series with UM-SCC-22A cells [7], the cell cycle profile result is listed as “significant increase in the population of cells in G0/G1”. Further, the figures for the pIC50 (in the series with UM-SCC-22A cells [1] (setting [12]); with UM-SCC-22A cells [1] (setting [13]); in [6]) were roughly 6.00, roughly 6.52 and 6.22, respectively. Besides, the “Cellular level, % of concentration applied” value in the series with MCF7 cells [4] (5 h) is 23%. In the series on MCF7 cells [8], the “effect on endogenous ceramide” value is reported as “caused generation of an “early Cer””. Besides, the “Stability (decomposition) by MS” value in series [9] is on record as “no evidence of their decomposition”.

With `N.N.[Cl][Pt][Cl]` [CSP, cisplatinum], in series [2], the “MTD of reference drugs (known)” value is recorded as 9 mg/kg.

`CCCCCCCCCCCCC/C=C/[C@@H](O)[C@H](CO)NC(=O)CCCCCCCCCCCCCCC[n+]1ccccc1.[Br-]` [LCL30, D-erythro-2-N-[16′-(1″-Pyridinium)-hexadecanoyl]-sphingosine Bromide]: in the series with UM-SCC-22A cells [7], the cell cycle profile result is reported as “significant increase in the population of cells in G0/G1”. For the same compound, the pIC50 was roughly 6.00 with UM-SCC-22A cells [1] (setting [12]), roughly 6.52 in the series on UM-SCC-22A cells [1] (setting [13]), 5.80 in series [6] (listed as LCL-30) and 5.74 in series [6]. Further, the “Cellular level, % of concentration applied” value in the series with MCF7 cells [4] (5 h) is on record as roughly 17%. Moreover, the “effect on endogenous ceramide” value in the series with MCF7 cells [8] is “caused generation of an “early Cer””. The “inhibitory effect on MCF7 cell growth (in words)” value in series [6] (48 h) is “similar, concentration dependent (1.0-10.0 μM) inhibitory effect on cell growth”. In addition, the “Stability (decomposition) by MS” value in series [9] is given as “no evidence of their decomposition”.

As for `O=c1[nH]cc(F)c(=O)[nH]1` [5-FU, 5-fluorouracil, reference compound], in the series with UM-SCC-22A cells [1] (setting [11]), the pIC50 was 4.00 to 6.00. The “MTD of reference drugs (known)” value in [2] is 25 mg/kg.

On to `CCCCCCCCCCCCCCCC[n+]1ccccc1` [cetylpyridinium bromide, Cetylpyridinium bromide (CPB) monohydrate, reference compound], for which the “mitochondrial large-amplitude swelling (in words)” value in series [3] is on record as “only moderate mitochondrial swelling”.

For `COC(=O)c1ccccc1-c1c2ccc(=[N+](C)C)cc-2oc2cc(N(C)C)ccc12` [TMRM, reference compound], the “mitochondrial large-amplitude swelling (in words)” value in [3] is on record as “fail to induce large-amplitude swelling”. In [5] (60 μM), the binding to mitochondria turned out to be 50±2.6 nmol/mg protein.

On to `CCCCCCCCCCCCC/C=C/[C@@H](O)[C@H](CO)NC(=O)C[n+]1ccccc1.[Br-]` [LCL150, D-erythro-2-N-[2′-(1″-Pyridinium)-acetyl]-sphingosine Bromide], for which the “effect on cell growth (in words)” value in the series on UM-SCC-22A cells [1] (UM-SCC-22A, 96 hr) is “did not exert a significant effect on cell growth”. The “effect on ΔΨ and mitochondrial swelling (in words)” value in series [3] (40 μM) was “only minor changes in the magnitude of mitochondrial swelling and the value of ΔΨ”. The “mitochondrial large-amplitude swelling (in words)” value in series [3] is listed as “failed to induce the same degree of swelling”. Besides, the “Cellular level, % of concentration applied” value in the series on MCF7 cells [4] (5 h) is listed as roughly 17%; in the series with MCF7 cells [4] (24 h) it was 50%. Besides, in series [5] (60 μM), the binding to mitochondria is 29.8 nmol/mg protein. The pIC50 in [6] was 5.10. Further, the “Stability (decomposition) by MS” value in series [9] was “no evidence of their decomposition”.

For `CCCCCCCCCCCCCCC[C@@H](O)[C@H](CO)NC(=O)C[n+]1ccccc1.[Br-]` [LCL319, D-erythro-2-N-[2′-(1″-Pyridinium)-acetyl]-4,5-dihydrosphingosine Bromide], the “Cellular level, % of concentration applied” value in the series on MCF7 cells [4] (5 h) is 27%. In addition, the “Cellular level, % of concentration applied” value with MCF7 cells [4] (24 h) was 52%. In series [10] (22° C.), the “Solubility at 22° C.” value was determined as 0.9 mg/mL and the “Solubility at 22° C. ([mM])” value is “(1.8) mM”. In series [10] (37° C.), the “Solubility at 37° C.” value worked out at 45 mg/mL and the “Solubility at 37° C. ([mM])” value is recorded as “(90) mM”. In addition, in [6] (10 μM, 48 h), the “inhibition of MCF7 cell growth” value came out at 15%. Moreover, the pIC50 in series [6] is 4.90.

As for `c1ccc([P+](c2ccccc2)(c2ccccc2)c2ccccc2)cc1` [TPP^+, reference compound], the “mitochondrial large-amplitude swelling (in words)” value in [3] was “fail to induce large-amplitude swelling”.
